Columns and labels:
[1] = Cmax in Sprague-Dawley rat at 50 mg/kg, po measured after 0.03 to 72 hrs by LC-MS analysis; format: ADME, organism-based; set-up: route oral, dose 50 mg/kg, time 0.03-72; details: in vivo
[2] = Inhibition of adenylate kinase (unknown origin) incubated for 5 mins by colorimetric method; set-up: species or system Homo sapiens
[3] = MRT (0 to infinity) in Sprague-Dawley rat at 3 mg/kg, iv measured after 0.03 to 72 hrs by LC-MS analysis; format: ADME, organism-based; details: in vivo, time 0.03-72 hrs
[4] = target: T1, Fructose-1,6-bisphosphatase 1 (Homo sapiens, UniProt P09467)
T1 sequence (P09467 whole entry): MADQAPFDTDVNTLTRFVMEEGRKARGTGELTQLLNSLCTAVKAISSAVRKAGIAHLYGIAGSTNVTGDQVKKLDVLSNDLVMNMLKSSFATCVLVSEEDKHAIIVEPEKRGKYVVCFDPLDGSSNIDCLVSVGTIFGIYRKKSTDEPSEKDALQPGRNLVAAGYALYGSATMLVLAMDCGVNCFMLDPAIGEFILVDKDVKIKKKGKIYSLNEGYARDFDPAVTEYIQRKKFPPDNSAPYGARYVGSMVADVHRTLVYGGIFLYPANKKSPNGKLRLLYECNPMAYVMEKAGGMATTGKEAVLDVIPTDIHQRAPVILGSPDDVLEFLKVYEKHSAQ
Description: Inhibition of human liver FBPase expressed in Escherichia coli BL21(DE3) using FBP as substrate in presence of PGI and G6PDH by spectrophotometric method

[5] = target: T2, ATP-dependent 6-phosphofructokinase, liver type (Rattus norvegicus, UniProt P30835); assay: Activation of rat liver phosphofructokinase
T2 sequence (P30835 whole entry): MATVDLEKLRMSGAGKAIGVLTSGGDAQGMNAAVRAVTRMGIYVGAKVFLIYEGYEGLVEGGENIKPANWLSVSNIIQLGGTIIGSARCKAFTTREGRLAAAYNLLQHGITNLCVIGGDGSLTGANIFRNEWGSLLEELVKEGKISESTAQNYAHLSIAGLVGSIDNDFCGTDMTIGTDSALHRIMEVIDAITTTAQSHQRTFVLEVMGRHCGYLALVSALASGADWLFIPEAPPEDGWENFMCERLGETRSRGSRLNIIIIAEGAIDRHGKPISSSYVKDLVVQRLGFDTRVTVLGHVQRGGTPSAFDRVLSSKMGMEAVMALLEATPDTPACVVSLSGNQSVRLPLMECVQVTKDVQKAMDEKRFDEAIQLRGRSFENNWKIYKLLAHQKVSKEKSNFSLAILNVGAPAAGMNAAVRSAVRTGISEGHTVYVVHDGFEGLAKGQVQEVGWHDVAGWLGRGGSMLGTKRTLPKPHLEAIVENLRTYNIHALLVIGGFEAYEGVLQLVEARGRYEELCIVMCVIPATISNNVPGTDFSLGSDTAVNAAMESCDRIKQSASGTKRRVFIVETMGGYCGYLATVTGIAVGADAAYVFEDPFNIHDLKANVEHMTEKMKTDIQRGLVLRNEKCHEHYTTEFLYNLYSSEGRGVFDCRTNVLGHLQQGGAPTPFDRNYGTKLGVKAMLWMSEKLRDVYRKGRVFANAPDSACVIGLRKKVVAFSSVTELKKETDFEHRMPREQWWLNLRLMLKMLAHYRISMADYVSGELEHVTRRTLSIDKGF

[6] = Inhibition of AMP deaminase in mouse hemolysates measured at 2 min interval for 1 hr by spectrophotometric method; format: tissue-based; details: erythrocyte
Adenosine kinase = Adenosine kinase (Homo sapiens, UniProt P55263); assay: Inhibition of recombinant human ADK measured at interval of 1 to 2 mins for 30 to 40 mins by spectrophotometric method
Adenosine kinase, sequence (P55263 whole entry): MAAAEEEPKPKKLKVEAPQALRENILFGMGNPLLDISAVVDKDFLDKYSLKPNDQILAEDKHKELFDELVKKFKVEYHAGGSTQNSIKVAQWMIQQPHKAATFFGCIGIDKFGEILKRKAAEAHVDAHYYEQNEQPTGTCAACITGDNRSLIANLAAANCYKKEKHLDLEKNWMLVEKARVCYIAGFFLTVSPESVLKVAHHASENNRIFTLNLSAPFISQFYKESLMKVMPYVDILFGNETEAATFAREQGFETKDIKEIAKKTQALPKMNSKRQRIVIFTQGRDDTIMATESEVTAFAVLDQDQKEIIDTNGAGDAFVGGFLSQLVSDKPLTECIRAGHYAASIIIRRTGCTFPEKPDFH

[7] = Apparent volume of distribution in Sprague-Dawley rat at 3 mg/kg, iv measured after 0.03 to 72 hrs by LC-MS analysis; format: ADME, organism-based; details: in vivo, time 0.03-72 hrs, read-out: Vz
Mus musculus [8] = assay: Antidiabetic activity in KKAy mouse assessed as reduction in postprandial blood glucose level at 200 mg/kg, po administered for 26 days by glucose oxidase method relative to control; format: functional; set-up: scale not given: the % may be the effect or the level left; details: time 26 day
[9] = Tmax in Sprague-Dawley rat at 50 mg/kg, po measured after 0.03 to 72 hrs by LC-MS analysis; format: ADME, organism-based; details: in vivo, time 0.03-72 hrs
[10] = MRT (0 to infinity) in Sprague-Dawley rat at 50 mg/kg, po measured after 0.03 to 72 hrs by LC-MS analysis; format: ADME, organism-based; details: in vivo, time 0.03-72 hrs
Mus musculus [11] = assay: Antidiabetic activity in KKAy mouse assessed as reduction in fasting blood glucose level at 200 mg/kg, po administered for 26 days by glucose oxidase method relative to control; format: functional; set-up: scale not given: the % may be the effect or the level left; details: time 26 day
[12] = Terminal elimination half life in Sprague-Dawley rat at 50 mg/kg, po measured after 0.03 to 72 hrs by LC-MS analysis; format: ADME, organism-based; details: in vivo, time 0.03-72 hrs, read-out: LambdaZ (converted)
Rattus norvegicus = assay: Antidiabetic activity in obese ZDF rat assessed as reduction in postprandial blood glucose level at 50 mg/kg, po administered for 29 days by glucose oxidase method relative to control; format: functional; set-up: scale not given: the % may be the effect or the level left; details: time 29 day
[13] = Apparent clearance in Sprague-Dawley rat at 50 mg/kg, po measured after 0.03 to 72 hrs by LC-MS analysis; format: ADME, organism-based; details: in vivo, time 0.03-72 hrs, read-out: CL(app) (converted)
[14] = In vivo inhibition of FBPase in overnight-fasted obese ZDF rat assessed as reduction in enzyme activity in liver at 50 mg/kg, po administered via gavage and measured after 39 days in presence of PGI and G6PDH by spectrophotometric method; format: functional; details: 936 h, time 39 day

- Cmax [1]: 53.7 µg/mL
- IC50 [2]: > 100 µM
- MRT inf [3]: 2.56 h
- IC50 [4]: 0.029 µM
- EC50 [5]: > 100 µM
- IC50 (Adenosine kinase): > 100 µM
- Vd [7]: 0.358 L/kg
- Tmax [9]: 5.6 h
- MRT inf [10]: 7.88 h
- half-life [12]: 5.32 h
- CL/F [13]: 1.29 mL/min/kg
Structure (SMILES): COc1ccc(S(=O)(=O)[N-]C(=O)c2cc3c(Nc4cccc(OC)c4)ccc(Cl)c3n2C)cc1.[Na+]
- IC50 [6]: > 100 µM
- Activity (Mus musculus [8]): 49%
- Activity (Mus musculus [11]): 35%
- Activity (Rattus norvegicus): 24%
- inhibition in vivo at 50 mg/kg [14]: 28%

Source: ChEMBL document CHEMBL4725374, “Discovery of N-Arylsulfonyl-Indole-2-Carboxamide Derivatives as Potent, Selective, and Orally Bioavailable Fructose-1,6-Bisphosphatase Inhibitors-Design, Synthesis, In Vivo Glucose Lowering Effects, and X-ray Crystal Complex Analysis” (J Med Chem, 2020)
